Laboratory results reported in ChEMBL document CHEMBL3044572, “Discovery of 2-(4-cyano-3-trifluoromethylphenyl amino)-4-(4-quinazolinyloxy)-6-piperazinyl(piperidinyl)-s-triazines as potential antibacterial agents” (2012).
In brackets after ≈: the same amount, converted by molar mass. Activity calls are given as the source filed them. The calls are words filed in the database; no cut-off is given here.

How the values were obtained:
Candida albicans [1] = assay: Antimicrobial activity against Candida albicans MTCC 183 by agar streak dilution method; format: functional
Aspergillus clavatus [2] = assay: Antimicrobial activity against Aspergillus clavatus MTCC 1323 by paper disk diffusion method; format: functional
Aspergillus niger [3] = assay: Antimicrobial activity against Aspergillus niger MTCC 282 by paper-disk diffusion method; format: functional
Aspergillus fumigatus [4] = assay: Antimicrobial activity against Aspergillus fumigatus MTCC 343 by paper-disk diffusion method; format: functional
Shigella flexneri [5] = assay: Antimicrobial activity against Shigella flexneri MTCC 1457 at 100 ug/ml by paper-disk diffusion method; format: functional, organism-based
Klebsiella pneumoniae [6] = assay: Antimicrobial activity against Klebsiella pneumoniae MTCC 109 at 100 ug/ml by paper disk diffusion method; format: functional, organism-based
Proteus vulgaris [7] = assay: Antimicrobial activity against Proteus vulgaris MTCC 1771 by paper disk diffusion method; format: functional
Salmonella typhi [8] = assay: Antimicrobial activity against Salmonella enterica subsp. enterica serovar Typhi MTCC 733 by paper disk diffusion method; format: functional
Pseudomonas aeruginosa [9] = assay: Antimicrobial activity against Pseudomonas aeruginosa MTCC 741 by paper disk diffusion method; format: functional
Bacillus cereus [10] = assay: Antimicrobial activity against Bacillus cereus MTCC 619 by paper disk diffusion method; format: functional
Escherichia coli [11] = assay: Antimicrobial activity against Escherichia coli MTCC 739 by paper disk diffusion method; format: functional
Staphylococcus aureus [12] = assay: Antimicrobial activity against Staphylococcus aureus MTCC 96 by paper-disk diffusion method; format: functional
Aspergillus clavatus [13] = assay: Antimicrobial activity against Aspergillus clavatus MTCC 1323 by agar streak dilution method; format: functional
Aspergillus fumigatus [14] = assay: Antimicrobial activity against Aspergillus fumigatus MTCC 343 by agar streak dilution method; format: functional
Aspergillus niger [15] = assay: Antimicrobial activity against Aspergillus niger MTCC 282 by agar streak dilution method; format: functional
Proteus vulgaris [16] = assay: Antimicrobial activity against Proteus vulgaris MTCC 1771 by agar streak dilution method; format: functional
Salmonella typhi [17] = assay: Antimicrobial activity against Salmonella enterica subsp. enterica serovar Typhi MTCC 733 by agar streak dilution method; format: functional
Pseudomonas aeruginosa [18] = assay: Antimicrobial activity against Pseudomonas aeruginosa MTCC 741 by agar streak dilution method; format: functional
Staphylococcus aureus [19] = assay: Antimicrobial activity against Staphylococcus aureus MTCC 96 by agar streak dilution method; format: functional
Bacillus cereus [20] = assay: Antimicrobial activity against Bacillus cereus MTCC 619 by agar streak dilution method; format: functional
[21] = system: Mycobacterium tuberculosis; assay: Antimicrobial activity against Mycobacterium tuberculosis H37Rv at 100 ug/ml by BACTEC MGIT method; format: functional, organism-based
Escherichia coli [22] = assay: Antimicrobial activity against Escherichia coli MTCC 739 by agar streak dilution method; format: functional
[23] = system: Mycobacterium tuberculosis; assay: Antimicrobial activity against Mycobacterium tuberculosis H37Rv by Lowenstein and Jensen method; format: functional; conditions: for MIC: Mycobacterium tuberculosis, H37Rv
[24] = system: Mycobacterium tuberculosis; assay: Antimicrobial activity against Mycobacterium tuberculosis H37Rv by BACTEC MGIT method; format: functional; conditions: Mycobacterium tuberculosis, H37Rv
Candida albicans [25] = assay: Antimicrobial activity against Candida albicans MTCC 183 by paper-disk diffusion method; format: functional
Klebsiella pneumoniae [26] = assay: Antimicrobial activity against Klebsiella pneumoniae MTCC 109 by paper disk diffusion method; format: functional
Klebsiella pneumoniae [27] = assay: Antimicrobial activity against Klebsiella pneumoniae MTCC 109 by agar streak dilution method; format: functional
Escherichia coli [28] = assay: Antimicrobial activity against Escherichia coli MTCC 739 at 100 ug/ml by paper-disk diffusion method; format: functional, organism-based
Aspergillus fumigatus [29] = assay: Antimicrobial activity against Aspergillus fumigatus MTCC 343 at 100 ug/ml by paper-disk diffusion method; format: functional, organism-based
Pseudomonas aeruginosa [30] = assay: Antimicrobial activity against Pseudomonas aeruginosa MTCC 741 at 100 ug/ml by paper disk diffusion method; format: functional, organism-based
Shigella flexneri [31] = assay: Antimicrobial activity against Shigella flexneri MTCC 1457 by paper disk diffusion method; format: functional
Shigella flexneri [32] = assay: Antimicrobial activity against Shigella flexneri MTCC 1457 by agar streak dilution method; format: functional

Compound	MIC (Candida albicans [1])	inhibition zone (IZ) (Aspergillus clavatus [2])	inhibition zone (IZ) (Aspergillus niger [3])	inhibition zone (IZ) (Proteus vulgaris [7])	inhibition zone (IZ) (Salmonella typhi [8])	inhibition zone (IZ) (Pseudomonas aeruginosa [9])	inhibition zone (IZ) (Bacillus cereus [10])	inhibition zone (IZ) (Escherichia coli [11])	inhibition zone (IZ) (Staphylococcus aureus [12])	MIC (Aspergillus clavatus [13])	MIC (Aspergillus niger [15])	MIC (Proteus vulgaris [16])	MIC (Salmonella typhi [17])	MIC (Staphylococcus aureus [19])	MIC (Bacillus cereus [20])	inhibition [21]	inhibition (percent inhibition) [23]	MIC [23]	MIC [24]	inhibition zone (IZ) (Candida albicans [25])	further results
N#Cc1ccc(Nc2nc(Oc3ncnc4ccccc34)nc(N3CCN(C(c4ccccc4)c4ccccc4)CC3)n2)cc1C(F)(F)F	100 µg/mL (≈ 152 µM)	21 mm	21 mm	21 mm	23 mm	22 mm	24 mm	23 mm	25 mm	100 µg/mL (≈ 152 µM)	100 µg/mL (≈ 152 µM)	100 µg/mL (≈ 152 µM)	100 µg/mL (≈ 152 µM)	25 µg/mL (≈ 37.9 µM)	100 µg/mL (≈ 152 µM)	inactive	97%	62.5 µg/mL (≈ 94.7 µM)	> 6.25 µg/mL	21 mm	inhibition zone (IZ) (Aspergillus fumigatus [4]): 23 mm; inhibition zone (IZ) (Shigella flexneri [5]): inactive; inhibition zone (IZ) (Klebsiella pneumoniae [6]): inactive; MIC (Aspergillus fumigatus [14]): 100 µg/mL (≈ 152 µM); MIC (Pseudomonas aeruginosa [18]): 50 µg/mL (≈ 75.8 µM); MIC (Escherichia coli [22]): 100 µg/mL (≈ 152 µM)
N#Cc1ccc(Nc2nc(Oc3ncnc4ccccc34)nc(N3CCC(Cc4ccccc4)CC3)n2)cc1C(F)(F)F	100 µg/mL (≈ 172 µM)	20 mm	21 mm	23 mm	22 mm	19 mm	23 mm	21 mm	23 mm	100 µg/mL (≈ 172 µM)	100 µg/mL (≈ 172 µM)	25 µg/mL (≈ 42.9 µM)	100 µg/mL (≈ 172 µM)	100 µg/mL (≈ 172 µM)	100 µg/mL (≈ 172 µM)	inactive	94%	500 µg/mL (≈ 858 µM)	> 6.25 µg/mL	22 mm	inhibition zone (IZ) (Aspergillus fumigatus [4]): 21 mm; inhibition zone (IZ) (Shigella flexneri [5]): inactive; inhibition zone (IZ) (Klebsiella pneumoniae [26]): 23 mm; MIC (Aspergillus fumigatus [14]): 100 µg/mL (≈ 172 µM); MIC (Klebsiella pneumoniae [27]): 100 µg/mL (≈ 172 µM); MIC (Pseudomonas aeruginosa [18]): 100 µg/mL (≈ 172 µM); MIC (Escherichia coli [22]): 100 µg/mL (≈ 172 µM)
N#Cc1ccc(Nc2nc(Oc3ncnc4ccccc34)nc(N3CCN(c4ccccn4)CC3)n2)cc1C(F)(F)F	100 µg/mL (≈ 175 µM)	20 mm	21 mm	21 mm	21 mm	21 mm	24 mm		22 mm	100 µg/mL (≈ 175 µM)	100 µg/mL (≈ 175 µM)	100 µg/mL (≈ 175 µM)	100 µg/mL (≈ 175 µM)	50 µg/mL (≈ 87.6 µM)	25 µg/mL (≈ 43.8 µM)	inactive	96%	200 µg/mL (≈ 351 µM)	> 6.25 µg/mL	21 mm	inhibition zone (IZ) (Shigella flexneri [5]): inactive; inhibition zone (IZ) (Klebsiella pneumoniae [6]): inactive; inhibition zone (IZ) (Escherichia coli [28]): inactive; MIC (Pseudomonas aeruginosa [18]): 100 µg/mL (≈ 175 µM); inhibition zone (IZ) (Aspergillus fumigatus [29]): inactive
N#Cc1ccc(Nc2nc(Oc3ncnc4ccccc34)nc(N3CCN(Cc4ccccc4)CC3)n2)cc1C(F)(F)F	100 µg/mL (≈ 171 µM)	20 mm	21 mm	21 mm	23 mm		23 mm	21 mm	22 mm	100 µg/mL (≈ 171 µM)	100 µg/mL (≈ 171 µM)	100 µg/mL (≈ 171 µM)	100 µg/mL (≈ 171 µM)	50 µg/mL (≈ 85.7 µM)	100 µg/mL (≈ 171 µM)	inactive	95%	500 µg/mL (≈ 857 µM)	> 6.25 µg/mL	21 mm	inhibition zone (IZ) (Pseudomonas aeruginosa [30]): inactive; inhibition zone (IZ) (Shigella flexneri [31]): 20 mm; inhibition zone (IZ) (Klebsiella pneumoniae [26]): 23 mm; MIC (Shigella flexneri [32]): 100 µg/mL (≈ 171 µM); MIC (Klebsiella pneumoniae [27]): 100 µg/mL (≈ 171 µM); MIC (Escherichia coli [22]): 100 µg/mL (≈ 171 µM); inhibition zone (IZ) (Aspergillus fumigatus [29]): inactive
N#Cc1ccc(Nc2nc(Oc3ncnc4ccccc34)nc(N3CCN(c4ccccc4F)CC3)n2)cc1C(F)(F)F	12.5 µg/mL (≈ 21.3 µM)	24 mm	26 mm	23 mm	26 mm	25 mm	26 mm	24 mm	27 mm	25 µg/mL (≈ 42.6 µM)	3.12 µg/mL (≈ 5.31 µM)	25 µg/mL (≈ 42.6 µM)	12.5 µg/mL (≈ 21.3 µM)	6.25 µg/mL (≈ 10.6 µM)	6.25 µg/mL (≈ 10.6 µM)	inactive	98%	12.5 µg/mL (≈ 21.3 µM)	> 6.25 µg/mL	26 mm	inhibition zone (IZ) (Aspergillus fumigatus [4]): 22 mm; inhibition zone (IZ) (Pseudomonas aeruginosa [30]): inactive; inhibition zone (IZ) (Shigella flexneri [31]): 25 mm; inhibition zone (IZ) (Klebsiella pneumoniae [26]): 24 mm; MIC (Aspergillus fumigatus [14]): 25 µg/mL (≈ 42.6 µM); MIC (Shigella flexneri [32]): 25 µg/mL (≈ 42.6 µM); MIC (Klebsiella pneumoniae [27]): 25 µg/mL (≈ 42.6 µM); MIC (Pseudomonas aeruginosa [18]): 25 µg/mL (≈ 42.6 µM); MIC (Escherichia coli [22]): 50 µg/mL (≈ 85.1 µM)
